Experimental data: article PMC12064818, “A general assay platform to study protein pharmacology using ligand-dependent structural dynamics” (Nature Communications, 2025)
Like-named read-outs stand apart in the source and are kept apart here.

Tests used:
NLuc = target: T1, NLuc (Oplophorus gracilirostris, UniProt Q9GV45, A31E/A60N/A81I/F95D/I117V/K70R/L54V/L99Q/M102K/N193R/P142E/Q151K/Q38R/Q45L/V71I/Y165I); assay type: biochemical; conditions: - ATP
T1 construct: His tag (inferred from IMAC purification); made in house; host or cells: E. coli
Protocol: Compounds and controls were added to plates as described in Supplementary Data 8. Nano-Glo luciferase assay reagent (Promega) was prepared fresh according to manufacturer’s protocol, filtered and added at 3 μL per well across assay plates with a BioRaptr2 dispenser. Enzyme was incubated with Nano-Glo reagent for 10 min and NLuc luminescence was read on a ViewLux CCD imager (PerkinElmer), with 1 s exposure with medium gain and 2x binning. Data were normalized to average no enzyme control as 100% enzyme inhibition and average DMSO neutral control. See Supplementary Table 4 for additional details.
Supplementary Table 4. […]
Sequence Param eter Value Description […]
(§1) 5 Detector ViewLux Read plate lum inescence (Exposure = 1- 10 sec; Gain = Medium -high; Speed = Slow;
Dispensing solution was diluted in 1X PBS, pH 7.4.
NanoLuc luciferase (NLuc) enzym atic lum inescence assay […]
Nano-Glo luciferase assay reagent (Prom ega, Cat # N1120) prepared according to m anufacturer’s recom m endations,
4 com ponents stored at -30 °C until use, and reagent prepared fresh for each assay.
syringe filter prior to dispense.

[1] = target: FLuc-C-NLuc (firefly luciferase) (Photinus pyralis, UniProt P08659, form not given/L550V); experiment: SDR assay, FLuc-C-NLuc; conditions: - ATP
P. pyralis FLuc = P. pyralis FLuc (Photinus pyralis, UniProt P08659); experiment: FLuc enzymatic luminescence assay, P. pyralis FLuc; assay type: biochemical; conditions: FLuc enzymatic assay; for IC50: read-out: IC50 or SDR50 (mM) FLuc E
Protocol: The enzyme activity of FLuc-N-HiBiT, FLuc-C-HiBiT, and FLuc-C-NLuc was measured similar to P. pyralis firefly luciferase (FLuc) as previously described. […] Compounds and controls were added to each plate as described in Supplementary Data 8 with a Hornet pintool system (Wako Automation). Compounds were incubated with respective enzymes for 30–60 min at room temperature protected from light and covered by solid metal lid to prevent evaporation. […] Luciferin was incubated with FLuc enzyme for 5 min before FLuc activity was then measured on a ViewLux CCD imager (PerkinElmer), with exposure times up to ten seconds with medium to high gain settings. Data were normalized to average no enzyme control as 100% enzyme inhibition and average DMSO neutral control. See Supplementary Table 4 for additional details.
Assays were run in the presence (solid symbols) or absence
(open symbols) of 10 µM ATP. Corresponding SMIL E S for NC GC IDs and source data are provided in
Supplementary Data 3 and as a Source Data file. 10
Supplementary Table 4. Protocol for Firefly luciferase (FLuc) and NanoLuc (NLuc) enzymatic
Supplementary Table 4: Protocol for Firefly luciferase (FLuc) and NanoLuc (NLuc) enzym atic lum inescence assay
Firefly luciferase (FLuc) enzym atic lum inescence assay
Sequence Param eter Value Description
No enzym e control (colum n 1) and enzym e solution (1- 10 nM FLuc enzym e) in FLuc assay
1 Reagent 4 µLbuffer; white/solid bottom , m edium bind, high base plates (Greiner), dispensed with BioRaptr
com pounds transferred to respective colum ns with Pintool
2b Test Com pounds 23 nLconcentration range) in colum ns 5- 48; com pounds transferred to respective wells with
3 Incubation 30 m in Incubate enzym e + com pounds at am bient tem p for 30 m in, protected from light
4 Reagent 3 µLAdd 3 µL of D-luciferin substrate solution to each well (final concentration 10 µM); dispensed
as §1
Dispensing solution was diluted in 1X PBS, pH 7.4. […]

[2] = target: FLuc-C-HiBiT (firefly luciferase) (Photinus pyralis, UniProt P08659, form not given/L550V); experiment: SDR assay, FLuc-C-HiBiT; conditions: SDR max. response, clade S
Chain of FLuc-C-HiBiT (firefly luciferase) (P08659 2-550 L550V, form open): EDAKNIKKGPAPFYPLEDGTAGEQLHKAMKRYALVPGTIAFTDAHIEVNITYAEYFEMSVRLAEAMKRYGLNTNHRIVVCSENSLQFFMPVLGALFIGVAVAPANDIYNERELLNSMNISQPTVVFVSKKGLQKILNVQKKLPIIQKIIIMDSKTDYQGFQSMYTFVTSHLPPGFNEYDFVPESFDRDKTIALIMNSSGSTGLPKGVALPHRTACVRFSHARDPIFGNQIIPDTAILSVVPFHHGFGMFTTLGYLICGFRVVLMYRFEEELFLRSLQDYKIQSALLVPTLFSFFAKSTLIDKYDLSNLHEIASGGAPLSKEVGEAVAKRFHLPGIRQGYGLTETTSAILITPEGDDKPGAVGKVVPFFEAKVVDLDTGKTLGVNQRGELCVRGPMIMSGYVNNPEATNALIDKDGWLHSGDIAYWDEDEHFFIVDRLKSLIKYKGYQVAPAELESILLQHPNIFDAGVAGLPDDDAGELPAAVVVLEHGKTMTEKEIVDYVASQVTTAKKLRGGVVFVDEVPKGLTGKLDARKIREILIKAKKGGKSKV

Chain of FLuc-C-NLuc (firefly luciferase) (P08659 2-550 L550V, form open): as above
Chain of P. pyralis FLuc (P08659 whole entry): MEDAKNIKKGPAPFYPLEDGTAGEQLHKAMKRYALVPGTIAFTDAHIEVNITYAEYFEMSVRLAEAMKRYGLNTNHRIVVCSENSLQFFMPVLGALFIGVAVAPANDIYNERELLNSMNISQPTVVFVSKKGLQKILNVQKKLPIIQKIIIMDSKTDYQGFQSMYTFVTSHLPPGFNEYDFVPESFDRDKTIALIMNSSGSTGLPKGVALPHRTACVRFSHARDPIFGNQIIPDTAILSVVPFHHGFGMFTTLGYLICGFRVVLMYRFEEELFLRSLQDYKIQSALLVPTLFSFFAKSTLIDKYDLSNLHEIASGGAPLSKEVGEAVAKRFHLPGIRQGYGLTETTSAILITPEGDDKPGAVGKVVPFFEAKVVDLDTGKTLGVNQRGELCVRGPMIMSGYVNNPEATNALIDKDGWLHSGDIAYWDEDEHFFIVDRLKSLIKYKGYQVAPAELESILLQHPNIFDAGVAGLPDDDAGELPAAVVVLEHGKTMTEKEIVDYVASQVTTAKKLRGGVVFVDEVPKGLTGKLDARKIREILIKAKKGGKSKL
T1 sequence (Q9GV45 other isoform, or with tags, fused parts or gaps with the stated changes): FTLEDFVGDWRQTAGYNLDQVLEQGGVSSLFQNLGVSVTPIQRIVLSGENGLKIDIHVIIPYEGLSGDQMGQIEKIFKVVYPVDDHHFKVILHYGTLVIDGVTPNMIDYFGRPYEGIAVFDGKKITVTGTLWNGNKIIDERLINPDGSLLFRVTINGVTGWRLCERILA

Row | Compound | Efficacy (%) NLuc (- ATP) (NLuc) [%] | Efficacy (%) FLuc-C-NLuc SDR (-ATP) [1] [%] | Efficacy (%) FLuc E (P. pyralis FLuc; Clade S follow-up) [%] | pIC50 or pSDR50 FLuc E (P. pyralis FLuc; Clade S follow-up) | IC50 (P. pyralis FLuc; Clade S follow-up) [mM] | % Activity (max response, + ATP) [2] [%] | % Activity (max response, - ATP) [2] [%] | pIC50 or pSDR50 FLuc E (P. pyralis FLuc) | IC50 (P. pyralis FLuc) [mM]
1 | Cc1ccc(C2Cn3cnc(C(=O)N4CCC(C(=O)NCc5cccc(F)c5)CC4)c3CO2)cc1 (stereo not drawn) [NCGC00449899-01] | 0.00 | 0.00 | -43.90 | 5.01 | 0.00988 | 60.19 | 0.00 | – | –
2 | Cc1cccc(CNC(=O)C2CCN(C(=O)c3ncn4c3COC(c3ccc(F)cc3)C4)CC2)c1 (stereo not drawn) [NCGC00449836-01] | -9.94 | 0.00 | -28.36 | 4.91 | 0.0124 | 48.27 | 0.00 | – | –
3 | CC1CCC(NC(=O)C2CCN(C(=O)c3ncn4c3COC(c3ccc(Cl)cc3)C4)CC2)CC1 (stereo not drawn) [NCGC00449845-01] | 0.00 | 0.00 | 0.00 | – | – | 0.00 | 0.00 | – | –
4 | Cc1ccc(C2Cn3cnc(C(=O)N4CCC(C(=O)NCc5cccc(Cl)c5)CC4)c3CO2)cc1 (stereo not drawn) [NCGC00449892-01] | 0.00 | 0.00 | -30.33 | 4.91 | 0.0124 | 61.41 | 14.19 | – | –
5 | O=C(NCC1CCCO1)C1CCN(C(=O)c2ncn3c2COC(c2ccc(F)cc2)C3)CC1 (stereo not drawn) [NCGC00449835-01] | 0.00 | 0.00 | -45.21 | 5.01 | 0.00988 | 54.34 | 0.00 | – | –
6 | COc1cccc(CNC(=O)C2CCN(C(=O)c3ncn4c3COC(c3ccc(C)cc3)C4)CC2)c1 (stereo not drawn) [NCGC00449886-01] | -7.20 | 0.00 | -31.42 | 4.91 | 0.0124 | 57.89 | 0.00 | – | –
7 | CC1CCC(NC(=O)C2CCN(C(=O)c3ncn4c3COC(c3ccc(F)cc3)C4)CC2)CC1 (stereo not drawn) [NCGC00449808-01] | 0.00 | 0.00 | -26.58 | – | – | 39.00 | 0.00 | – | –
8 | COc1ccc(C2Cn3cnc(C(=O)N4CCC(C(=O)NC(C)C)CC4)c3CO2)cc1 (stereo not drawn) [NCGC00449857-01] | 0.00 | 0.00 | -19.61 | – | – | 13.32 | 0.00 | – | –
9 | O=C(Nc1ccc(F)c(F)c1)C1CCN(C(=O)c2ncn3c2COC(c2ccc(F)cc2)C3)CC1 (stereo not drawn) [NCGC00449940-01] | 0.00 | 0.00 | -73.07 | 4.96 | 0.0111 | 125.80 | 0.00 | – | –
10 | CCc1ccc(NC(=O)C2CCN(C(=O)c3ncn4c3COC(c3ccc(F)cc3)C4)CC2)cc1 (stereo not drawn) [NCGC00449925-01] | 0.00 | 0.00 | -32.74 | 4.96 | 0.0111 | 47.34 | 0.00 | – | –
11 | COc1ccc(C2Cn3cnc(C(=O)N4CCC(C(=O)NCc5ccc(C)cc5)CC4)c3CO2)cc1 (stereo not drawn) [NCGC00449866-01] | -22.39 | 0.00 | 0.00 | – | – | 0.00 | -10.00 | – | –
12 | Cc1ccc(C2Cn3cnc(C(=O)N4CCC(C(=O)NCc5ccc(F)cc5)CC4)c3CO2)cc1 (stereo not drawn) [NCGC00449889-01] | 0.00 | 0.00 | -57.95 | 5.01 | 0.00988 | 136.15 | 0.00 | – | –
13 | COc1ccc(CNC(=O)C2CCN(C(=O)c3ncn4c3COC(c3ccccc3)C4)CC2)cc1 (stereo not drawn) [NCGC00449778-01] | 0.00 | 0.00 | -88.62 | – | – | 301.65 | 0.00 | 5.01 | 0.00988
14 | Cc1ccc(CNC(=O)C2CCN(C(=O)c3ncn4c3COC(c3ccc(Cl)cc3)C4)CC2)cc1 (stereo not drawn) [NCGC00449850-01] | 0.00 | 0.00 | -21.67 | – | – | 22.50 | 0.00 | – | –
15 | O=C(NCCC1=CCCCC1)C1CCN(C(=O)c2ncn3c2COC(c2ccc(Cl)cc2)C3)CC1 (stereo not drawn) [NCGC00449848-01] | 0.00 | 0.00 | -32.57 | 4.91 | 0.0124 | 23.50 | -6.50 | – | –
16 | Cc1ccc(C2Cn3cnc(C(=O)N4CCC(C(=O)NCCCc5ccccc5)CC4)c3CO2)cc1 (stereo not drawn) [NCGC00449897-01] | 0.00 | 0.00 | -69.05 | 5.01 | 0.00988 | 151.61 | -10.39 | – | –
17 | O=C(NCc1ccccc1)C1CCN(C(=O)c2ncn3c2COC(c2ccc(F)cc2)C3)CC1 (stereo not drawn) [NCGC00449813-01] | 0.00 | 0.00 | -31.52 | – | – | 33.80 | 0.00 | 4.91 | 0.0124
18 | COc1cccc(CNC(=O)C2CCN(C(=O)c3ncn4c3COC(c3ccccc3)C4)CC2)c1 (stereo not drawn) [NCGC00449777-01] | 0.00 | 0.00 | -78.20 | – | – | 322.03 | 0.00 | 5.26 | 0.00555
19 | O=C(NCc1ccccc1F)C1CCN(C(=O)c2ncn3c2COC(c2ccc(Cl)cc2)C3)CC1 (stereo not drawn) [NCGC00449851-01] | 0.00 | 0.00 | -40.26 | 4.91 | 0.0124 | 18.50 | 0.00 | – | –
20 | O=C(NCc1ccc(F)cc1F)C1CCN(C(=O)c2ncn3c2COC(c2ccccc2)C3)CC1 (stereo not drawn) [NCGC00449785-01] | 0.00 | 0.00 | -69.49 | – | – | 291.32 | 0.00 | 5.06 | 0.0088
21 | CC(CNC(=O)C1CCN(C(=O)c2ncn3c2COC(c2ccc(F)cc2)C3)CC1)c1ccccc1 (stereo not drawn) [NCGC00449827-01] | 0.00 | 0.00 | -13.06 | – | – | 15.49 | 0.00 | – | –
